Results as given in US7691905B2, “Inhibition of melanogenesis and melanoma metastasis with p-aminobenzoic acid (PABA)” (New York University, priority 2002, dated 2010).

Legend:
transplantable melanoma = details: hamsters; Zbytniewski et al. 1977; cited from earlier work
B16 melanoma cells [1] = assay: Melanin secretion of B16 melanoma cells, colour of DMEM medium; format: cell-based; details: 0.1 mg/ml PABA in DMEM, seven days; unsupplemented medium turned brown
Method: The RPMI medium remained red due to the inhibition of melanin secretion. One of the major components in RPMI that is absent in DMEM is PABA. To assess the effect of PABA on melanin secretion from B16 cells, PABA was added to DMEM culture medium to achieve the same concentration as that found in the RPMI medium: 0.1 mg of PABA per milliliter of medium. Cells were grown in PABA-supplemented DMEM medium for seven days. The PABA-supplemented medium remained red, while the unsupplemented medium turned brown.

[2] = test system: Lewis Lung Carcinoma (LLC) cells; assay: Lewis Lung Carcinoma tumor growth assay on chick embryo CAM; format: in vivo; details: cells grown with 0.1 mg/ml PABA for 3 weeks, 7 days
Method: The effect of PABA on the growth of carcinoma tumors was tested using the Lewis Lung Carcinoma (LLC) tumor growth assay. (Mauceri H J et al. (2002) Cancer Chemother Pharmacol 50:412-418.) LLC cells were grown in DMEM medium in the presence or absence of 0.1 mg/ml PABA for 3 weeks. Cells were harvested and 2×10^6 cells from each group were inoculated in the CAMs of 10-day old chick embryos. The embryos were allowed to develop for a further seven days. At the end of the 7-day incubation period, the embryos were sacrificed and the tumors removed and wet weights determined.

B16 melanoma cells [3] = assay: B16 melanoma cell proliferation with ionizing radiation, direct cell counts; format: cell-based; details: 0.1 mg/ml PABA plus single fraction dose of 10 Gy, 3-day incubation
Method: (§1) Cell proliferation was determined by direct cell counts.
(Kinnaert E et al. (2000) Radiation Res 154:497-502.) Thus, blocking melanin synthesis or melanogenesis may cause melanoma cells to become much more sensitive to radiation therapy. To test the effect of PABA on the anti-proliferative effects of ionizing radiation, B16 melanoma cells grown in the presence or absence of 0.1 mg/ml PABA were treated with a single fraction dose of 10 Gy of ionizing radiation. Cell proliferation was monitored by direct cell counts over a 3-day incubation period.

[4] = test system: Lewis Lung Carcinoma (LLC) cells; assay: Lewis Lung Carcinoma cell proliferation, direct cell counts; format: cell-based; details: 0.1 mg/ml PABA, DMEM, 48-hour incubation
Method: The anti-proliferative effect of PABA on carcinoma cells was tested on Lewis Lung Carcinoma (LLC) cells. (Young M R et al. (2003) Int J Cancer 103:38-44.) Cells were grown in DMEM medium in the presence or absence of 0.1 mg/ml PABA. Cell proliferation was monitored by direct cell counts over a 48-hour incubation period.

tyrosinase = assay: Tyrosinase activity, Dopachrome formation from L-DOPA (OD 475 nm); format: biochemical; details: L-DOPA 8.0 mM, 800 U purified tyrosinase
Method: Tyrosinase activity was assessed by measuring the formation of Dopachrome from L-DOPA using absorbance at 475 nm wavelength.
The effects of PABA on tyrosinase activity were evaluated by measuring the formation of Dopachrome using a previously published method. (Heidcamp W (1995), supra.) L-DOPA (8.0 mM) was resuspended in sodium citrate buffer and 800 U of purified tyrosinase was added. Tyrosinase activity was measured by monitoring the formation of Dopachrome by measuring the optical density of the mixture at a wavelength of 475 nm. To assess the effects of PABA, the reactions were performed in the presence or absence of PABA. As a control, reactions were performed in the presence of adenosine instead of PABA.

[5] = test system: human G-361 melanoma cells; assay: Human G-361 melanoma cell proliferation with ionizing radiation, direct cell counts; format: cell-based; details: 0.1 mg/ml PABA plus 20 Gy
Method: as §1
The radiation-enhancing effect of PABA on melanoma observed in B16 melanoma cells was confirmed in the pigmented human melanoma cell line G-361 (ATCC Number CRL-1424, (1978) Pediatr Res 12:485.) The human G-361 melanoma cells are more resistant to radiation than B16 melanoma cells and thus require a higher dose of ionizing radiation to inhibit growth, compared to B16 cells. Human G-361 melanoma cells were treated with 20 Gy of radiation, either alone or in combination with 0.1 mg/ml PABA, as described in example 7.

B16F10 melanoma cells [6] = assay: In vivo xenograft study of PABA and radiation, B16F10 melanoma; set-up: species or system Balb/c nude mice; details: tumor volume after 15 days
Method: 1×10^6 B16F10 melanoma cells (cultured in the absence of PABA) were implanted subcutaneously into Balb/c nude mice. Intraperitoneal injections of PABA at a concentration of 50 mg/kg were started 3 days after implantation of the tumor cells and continued daily. Ten days following tumor cell implantation, mice were either not irradiated or were irradiated with 3 fractions of 3 Gy every other day for a total dose of 9 Gy.
After 15 days, the animals were sacrificed and the tumors were resected. The tumors were measured and their volumes were calculated.

B16 melanoma cells [7] = assay: Chick embryo tumor growth assay, B16 melanoma on CAM; format: in vivo; details: cells grown with 0.1 mg/ml PABA for 6 weeks, CAM of 10-day old chick embryos, 7 days
Method: The effect of PABA on solid tumor growth in vivo were evaluated using the chick embryo tumor growth assay. (Petitclerc E et al. (2000) J Biol Chem 275:8051-8061.) B16 melanoma cells were grown in the presence or absence of 0.1 mg/ml PABA for 6 weeks. Cells were harvested and 2.5×10^5 cells from each group were inoculated in the chorioallantoic membranes (CAM) of 10-day old chick embryos. The embryos were allowed to develop for a further seven days. At the end of the 7-day incubation period, the embryos were sacrificed and the tumors removed and wet weights determined. Tumors formed from B16 melanoma cells treated with PABA were, on average, 60% smaller than tumors derived from untreated B16 melanoma cells (FIG. 4).

B16F10 melanoma cells [8] = assay: Chick embryo tumor growth assay, B16F10 melanoma, PABA and ionizing radiation; format: in vivo; details: tumor wet weight after 7 days
Method: The chick embryo tumor growth assay (Petitclerc E et al. (2000) J Biol Chem 275:8051-8061) was used to determine whether PABA enhances the effect of ionizing radiation to inhibit tumor growth in vivo. Four groups of chick embryos were studied. […] There were 5 to 10 chick embryos in each group.
The groups were created in the following manner. B16F10 melanoma cells were cultured for 14 days in growth medium in the absence of PABA or in the presence of PABA at a concentration of 100 μg/ml. The cells were harvested, washed, and resuspended in sterile PBS. The B16F10 melanoma cells were implanted on the CAMs of 10-day-old chick embryos, which were then incubated for at least 24 hours. The incubated chick embryos (some that were cultured in the absence of PABA and some that cultured in the presence of PABA) were treated with a single fraction dose of ionizing radiation (5.0 Gy). The embryos were incubated for 7 days and then the chick embryos of each group were sacrificed. The tumors were resected and tumor growth was assessed by measuring the wet weights of the resected tumors.

B16 melanoma cells [9] = assay: B16 melanoma experimental metastasis in chick embryo model; format: in vivo; details: cells grown with 0.1 mg/ml PABA for one to three weeks, injected into 12-day old chick embryos, 7-day incubation
Method: The number of melanoma metastases were measured by counting the number of metastatic lung tumor lesions present in lungs from sacrificed chick embryos. The effect of PABA on the aggressiveness and invasiveness of B16 melanoma was measured in a chick embryo model. (Brooks PC et al. (1994) Cell 79:1157-1164.) The effects of PABA on B16 experimental metastasis in vivo were evaluated to determine the role melanin synthesis plays in the aggressiveness and invasiveness of melanoma metastasis. B16 melanoma cells grown in the presence or absence of 0.1 mg/ml PABA for one to three weeks were injected into 12-day old chick embryos. At the end of a 7-day incubation period, the embryos were sacrificed and the number of metastatic lung tumor lesions were quantified.

B16 melanoma cells [10] = assay: Intracellular melanin, colour of cell pellets; format: cell-based; details: 0.1 mg/ml PABA, three weeks of culture; untreated pellets black
Method: To determine whether PABA inhibits the intracellular synthesis of melanin in B16 cells, cells were grown in DMEM in the presence or absence of 0.1 mg/ml PABA. Following three weeks of culture, cells were collected by centrifugation. Cell pellets from cells cultured in the absence of PABA appeared black, as normal, indicating the presence of melanin.

B16 melanoma cells [11] = assay: Melanin content of culture medium by absorbance at 405 nm and 660 nm; format: cell-based; details: PABA 0.5 mg/day and 1.0 mg/day, DMEM
Method: Melanin levels were determined by absorbance at 405 nm wavelength (A) and absorbance at 660 nm wavelength (B). To further analyze the effects of PABA on B16 melanoma cell melanin secretion, PABA was added at concentrations of 0.5 mg/day and 1.0 mg/day to B16 melanoma cells cultured in DMEM. Samples of the culture medium were then analyzed for melanin content by measuring absorbance at wavelengths of 405 nm and 660 nm.

B16 melanoma cells [12] = assay: B16 melanoma cell proliferation with PABA and/or Taxol, direct cell counts; format: cell-based; details: 10.0 μM paclitaxel and/or 0.1 mg/ml PABA, DMEM, 48-hour incubation
Method: as §1
The ability of PABA to enhance the anti-proliferative effect of the chemotherapeutic agent, Taxol, was tested in B16 melanoma cells. […] Cell proliferation was monitored by direct cell counts over a 48-hour incubation period.

NCc1ccc(C(=O)O)cc1 [PAMBA, para-Aminomethylbenzoic acid]
invasiveness of transplantable melanoma metastases (transplantable melanoma): reducing the invasiveness of transplantable melanoma metastases in hamsters

Nc1ccc(C(=O)O)cc1 [PABA, para-Aminobenzoic acid]
colour of culture medium (accumulation of secreted melanin) (B16 melanoma cells [1]): remained red
tumor size (wet weight) vs tumors from untreated LLC cells [2]: significantly larger
cell proliferation after radiation, PABA vs no PABA (B16 melanoma cells [3]): increased the anti-proliferative and cytotoxic effects
cell proliferation [4]: increased the proliferation of LLC cells
tyrosinase activity (Dopachrome formation) (tyrosinase): dose dependent inhibition of Dopachrome formation
cell proliferation, PABA in combination with radiation [5]: essentially completely inhibited the proliferation
inhibition of tumor growth as compared to control (B16F10 melanoma cells [6]; PABA 50 mg/kg i.p. daily plus 3 fractions of 3 Gy (9 Gy), P<0.002): about 95%
effect on tumor growth as compared to control (B16F10 melanoma cells [6]; PABA alone 50 mg/kg i.p. daily, P>0.100): minimal effect on tumor growth
tumor size (wet weight) reduction vs tumors from untreated cells (B16 melanoma cells [7]): 60%
inhibition of tumor growth as compared to the control group (B16F10 melanoma cells [8]; PABA 100 μg/ml plus single fraction ionizing radiation 5.0 Gy): about 90%
inhibition of tumor growth as compared to the control group (B16F10 melanoma cells [8]; PABA alone, cells cultured 14 days with 100 μg/ml PABA): about 75%
number of metastatic lung tumor lesions (B16 melanoma cells [9]): time dependent inhibition of B16 melanoma metastasis
colour of cell pellets (melanin accumulation) (B16 melanoma cells [10]): much lighter in color
melanin secretion (absorbance of medium at 405 nm and 660 nm) (B16 melanoma cells [11]): time dependent and concentration dependent inhibition of melanin secretion

CC(=O)O[C@H]1C(=O)[C@@]2(C)[C@H]([C@H](OC(=O)c3ccccc3)[C@]3(O)C[C@H](OC(=O)[C@H](O)[C@@H](NC(=O)c4ccccc4)c4ccccc4)C(C)=C1C3(C)C)[C@]1(OC(C)=O)CO[C@@H]1C[C@@H]2O [Paclitaxel, paclitaxel]
cell proliferation (B16 melanoma cells [12]): significantly inhibited B16 melanoma cell proliferation
